Source: US10485235B2, “Aryloxypyrimidinyl ethers as herbicides” (FMC Corporation, priority 2015, dated 2019)

Tests used:
Assay type in all cases: in vivo
[1] = tested on: corn (Zea mays); experiment: Test A postemergence, corn; conditions: Zea mays, post-emergence, 240 h, postemergence, 0 to 100 scale, 0 is no effect, 100 is complete control, approximately 10 days; for Corn plant response rating (crop injury, 0 = no effect, 100 = complete kill) at 125 g/ha: 125 g ai/ha; for Corn plant response rating (crop injury, 0 = no effect, 100 = complete kill) at 500 g/ha: 500 g ai/ha
Method in brief: (§1)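 Pre- and postemergence greenhouse screen in loam–sand soil. Test chemicals were delivered in a non-phytotoxic solvent with surfactant, preemergence as a directed spray onto seeded soil and postemergence onto 2–10 cm seedlings. Injury was judged by eye after ~10 days on a 0–100 scale.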

[2] = tested on: galium (catchweed bedstraw, Galium aparine); experiment: Test A postemergence, galium; conditions: Galium, post-emergence, 240 h, postemergence, 0 to 100 scale, 0 is no effect, 100 is complete control, approximately 10 days, read-out: Plant response rating, Galium; for pest or weed control at 125 g/ha: 125 g ai/ha; for pest or weed control at 500 g/ha: 500 g ai/ha
Method in brief: as §1

[3] = tested on: rice (Oryza sativa); experiment: Test B flooded paddy test, rice; conditions: Oryza sativa; 250 g ai/ha, Flood; visual rating after 13 to 15 days; scale 0 to 100, 0 is no effect, 100 is complete control; read-out: Plant response rating, Rice
Method in brief: (§2)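 Plants grown to 2-leaf stage, pots flooded to 3 cm above soil and compound applied directly to paddy water, depth maintained throughout. After 13-15 days in greenhouse, visual rating against untreated controls on 0-100 scale (0 no effect, 100 complete control).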

[4] = tested on: wheat (Triticum aestivum); experiment: Test A postemergence, wheat; conditions: Triticum aestivum, post-emergence, 240 h, postemergence, 0 to 100 scale, 0 is no effect, 100 is complete control, approximately 10 days, read-out: Plant response rating, Wheat; for plant injury at 125 g/ha: 125 g ai/ha; for plant injury at 500 g/ha: 500 g ai/ha
Method in brief: as §1

[5] = tested on: kochia (Kochia scoparia); experiment: Test A postemergence, kochia; conditions: Bassia scoparia, post-emergence, 240 h, postemergence, 0 to 100 scale, 0 is no effect, 100 is complete control, approximately 10 days, read-out: Plant response rating, Kochia; for pest or weed control at 125 g/ha: 125 g ai/ha; for pest or weed control at 500 g/ha: 500 g ai/ha
Method in brief: as §1

[6] = tested on: barnyardgrass (Echinochloa crus-galli); experiment: Test B flooded paddy test, barnyardgrass; conditions: Echinochloa crus-galli; 250 g ai/ha, Flood; visual rating after 13 to 15 days; scale 0 to 100, 0 is no effect, 100 is complete control; read-out: Plant response rating, Barnyardgrass
Method in brief: as §2

[7] = tested on: foxtail, giant (giant foxtail, Setaria faberii); experiment: Test A preemergence, giant foxtail; conditions: Setaria faberi, pre-emergence, 240 h, Preemergence, 0 to 100 scale (0 no effect, 100 complete control), read-out: Plant response rating, Foxtail, Giant; for pest or weed control at 125 g/ha: 125 g ai/ha; for pest or weed control at 500 g/ha: 500 g ai/ha
Method in brief: as §1

[8] = tested on: barnyardgrass (Echinochloa crus-galli); experiment: Test A preemergence, barnyardgrass; conditions: Echinochloa crus-galli, pre-emergence, 240 h, Preemergence, 0 to 100 scale (0 no effect, 100 complete control), read-out: Plant response rating, Barnyardgrass; for pest or weed control at 125 g/ha: 125 g ai/ha; for pest or weed control at 500 g/ha: 500 g ai/ha
Method in brief: as §1

[9] = tested on: pigweed (Amaranthus retroflexus); experiment: Test A postemergence, pigweed; conditions: Amaranthus retroflexus, post-emergence, 240 h, postemergence, 0 to 100 scale, 0 is no effect, 100 is complete control, approximately 10 days, read-out: Plant response rating, Pigweed; for pest or weed control at 125 g/ha: 125 g ai/ha; for pest or weed control at 500 g/ha: 500 g ai/ha
Method in brief: as §1

[10] = tested on: ducksalad (Heteranthera limosa); experiment: Test B flooded paddy test, ducksalad; conditions: Heteranthera limosa; 250 g ai/ha, Flood; visual rating after 13 to 15 days; scale 0 to 100, 0 is no effect, 100 is complete control; read-out: Plant response rating, Ducksalad
Method in brief: as §2

[11] = tested on: sedge, umbrella (small-flower umbrella sedge, Cyperus difformis); experiment: Test B flooded paddy test, umbrella sedge; conditions: Cyperus difformis; 250 g ai/ha, Flood; visual rating after 13 to 15 days; scale 0 to 100, 0 is no effect, 100 is complete control; read-out: Plant response rating, Sedge, Umbrella
Method in brief: as §2

[12] = tested on: pigweed (Amaranthus retroflexus); experiment: Test A preemergence, pigweed; conditions: Amaranthus retroflexus, pre-emergence, 240 h, Preemergence, 0 to 100 scale (0 no effect, 100 complete control), read-out: Plant response rating, Pigweed; for pest or weed control at 125 g/ha: 125 g ai/ha; for pest or weed control at 500 g/ha: 500 g ai/ha
Method in brief: as §1

[13] = tested on: kochia (Kochia scoparia); experiment: Test A preemergence, kochia; conditions: Bassia scoparia, pre-emergence, 240 h, Preemergence, 0 to 100 scale (0 no effect, 100 complete control), read-out: Plant response rating, Kochia; for pest or weed control at 125 g/ha: 125 g ai/ha; for pest or weed control at 500 g/ha: 500 g ai/ha
Method in brief: as §1

[14] = tested on: foxtail, giant (giant foxtail, Setaria faberii); experiment: Test A postemergence, giant foxtail; conditions: Setaria faberi, post-emergence, 240 h, postemergence, 0 to 100 scale, 0 is no effect, 100 is complete control, approximately 10 days, read-out: Plant response rating, Foxtail, Giant; for pest or weed control at 125 g/ha: 125 g ai/ha; for pest or weed control at 500 g/ha: 500 g ai/ha
Method in brief: as §1

[15] = tested on: ryegrass, Italian (Italian ryegrass, Lolium multiflorum); experiment: Test A preemergence, Italian ryegrass; conditions: Lolium multiflorum, pre-emergence, 240 h, Preemergence, 0 to 100 scale (0 no effect, 100 complete control), read-out: Plant response rating, Ryegrass, Italian; for pest or weed control at 125 g/ha: 125 g ai/ha; for pest or weed control at 500 g/ha: 500 g ai/ha
Method in brief: as §1

SMILES | Corn plant response rating (crop injury, 0 = no effect, 100 = complete kill) at 125 g/ha [1] [%] | pest or weed control at 125 g/ha [2] [%] | plant injury at 250 g/ha [3] [%] | plant injury at 125 g/ha [4] [%] | pest or weed control at 125 g/ha [5] [%] | pest or weed control at 250 g/ha [6] [%] | pest or weed control at 125 g/ha [7] [%] | pest or weed control at 125 g/ha [8] [%] | pest or weed control at 125 g/ha [9] [%] | pest or weed control at 250 g/ha [10] [%] | pest or weed control at 250 g/ha [11] [%] | pest or weed control at 125 g/ha [12] [%] | pest or weed control at 125 g/ha [13] [%] | pest or weed control at 125 g/ha [14] [%] | pest or weed control at 125 g/ha [15] [%] | Corn plant response rating (crop injury, 0 = no effect, 100 = complete kill) at 500 g/ha [1] [%] | pest or weed control at 500 g/ha [2] [%] | plant injury at 500 g/ha [4] [%] | pest or weed control at 500 g/ha [5] [%] | pest or weed control at 500 g/ha [7] [%] | also measured
N#Cc1cccc(Oc2ncc(Cl)cn2)c1OCCC(F)(F)F [Compound 23, 3-[(5-chloro-2-pyrimidinyl)oxy]-2-(3,3,3-trifluoropropoxy)benzonitrile] | 90 | 90 | 30 | 70 | 100 | 50 | 100 | 100 | 100 | 100 | 100 | 100 | 100 | 90 | 30 | – | – | – | – | – | Corn plant response rating (crop injury, 0 = no effect, 100 = complete kill) at 31 g/ha ([1]; 31 g ai/ha): 10%; pest or weed control at 31 g/ha ([2]; 31 g ai/ha): 60%; plant injury at 31 g/ha ([4]; 31 g ai/ha): 20%; pest or weed control at 31 g/ha ([5]; 31 g ai/ha): 90%; pest or weed control at 31 g/ha ([7]; 31 g ai/ha): 90%; pest or weed control at 31 g/ha ([8]; 31 g ai/ha): 70%; pest or weed control at 31 g/ha ([9]; 31 g ai/ha): 100%; pest or weed control at 31 g/ha ([12]; 31 g ai/ha): 100%; pest or weed control at 31 g/ha ([13]; 31 g ai/ha): 100%; pest or weed control at 31 g/ha ([14]; 31 g ai/ha): 20%; pest or weed control at 31 g/ha ([15]; 31 g ai/ha): 0%
Fc1cccc(Oc2ncc(Cl)cn2)c1OCC(F)(F)F [Compound 28] | 0 | 0 | 0 | 0 | 0 | 0 | 0 | 10 | 30 | 30 | 0 | 0 | 0 | 0 | 0 | 10 | 20 | 0 | 10 | 70 | pest or weed control at 500 g/ha [8]: 70%; pest or weed control at 500 g/ha [9]: 70%; pest or weed control at 500 g/ha [12]: 100%; pest or weed control at 500 g/ha [13]: 20%; pest or weed control at 500 g/ha [14]: 20%; pest or weed control at 500 g/ha [15]: 20%
CCCCOc1c(C#N)cccc1Oc1ncc(Cl)cn1 [Compound 35, 2-butoxy-3-[(5-chloro-2-pyrimidinyl)oxy]benzonitrile] | 20 | 90 | 0 | 10 | 100 | 30 | 100 | 100 | 90 | 65 | 70 | 100 | 100 | 90 | 30 | 70 | 100 | 40 | 100 | 100 | pest or weed control at 500 g/ha [8]: 100%; pest or weed control at 500 g/ha [9]: 100%; pest or weed control at 500 g/ha [12]: 100%; pest or weed control at 500 g/ha [13]: 100%; pest or weed control at 500 g/ha [14]: 90%; pest or weed control at 500 g/ha [15]: 90%
